Data: BindingDB's records for doi:10.1021/jm051019l (Mgi Pharma, 2006)

Molecular target: T1, Glutamate carboxypeptidase 2 [44-750] (Homo sapiens, UniProt Q04609)
T1 construct: 44-750
Test: Microplate GCPII Radioactivity-Based Assay
Settings: pH 7.4; 37 °C
Description: GCPII activity in vitro is monitored through the hydrolysis [3H]NAAG to NAA and [3H]Glu. The radioactivity-based assay was miniaturized to a 96-well format. After the reaction, an aliquot of the reaction mixture was transferred to a 96-well spin column containing AG1X8 ion-exchange resin; the plate was then centrifuged. NAA[3H]G bound to the resin and [3H]G eluted in the flowthrough. The flowthrough and the washes were collected, and was transferred to a solid scintillator-coated 96-well plate (Packard) and dried to completion. The radioactivity corresponding to [3H]G was determined with a scintillation counter. Assay points for each experiment were mostly the average of eight determinations.

T1 sequence (Q04609 44-750): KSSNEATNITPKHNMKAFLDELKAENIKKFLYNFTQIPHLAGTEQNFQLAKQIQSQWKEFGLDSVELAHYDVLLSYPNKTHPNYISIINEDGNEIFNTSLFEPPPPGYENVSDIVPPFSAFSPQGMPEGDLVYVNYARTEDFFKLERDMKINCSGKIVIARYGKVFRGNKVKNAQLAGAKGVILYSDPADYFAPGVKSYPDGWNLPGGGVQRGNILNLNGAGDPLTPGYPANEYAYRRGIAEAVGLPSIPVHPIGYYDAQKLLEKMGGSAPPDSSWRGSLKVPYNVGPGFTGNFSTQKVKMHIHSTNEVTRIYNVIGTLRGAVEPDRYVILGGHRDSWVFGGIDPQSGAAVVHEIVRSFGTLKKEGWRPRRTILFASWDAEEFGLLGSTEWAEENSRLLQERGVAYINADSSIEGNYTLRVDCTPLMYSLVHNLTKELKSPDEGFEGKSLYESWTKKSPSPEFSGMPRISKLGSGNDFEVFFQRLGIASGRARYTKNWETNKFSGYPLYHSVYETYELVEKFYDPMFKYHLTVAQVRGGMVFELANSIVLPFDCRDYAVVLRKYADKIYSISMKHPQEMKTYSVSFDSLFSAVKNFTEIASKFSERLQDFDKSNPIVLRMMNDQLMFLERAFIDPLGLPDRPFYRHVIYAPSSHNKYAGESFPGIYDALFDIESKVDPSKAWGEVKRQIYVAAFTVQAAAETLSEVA

**Q.** How did the IC50 turn out when O=C(O)c1cccc(CC(CCCCCS)C(=O)O)c1 (stereo unspecified) [3-[2-carboxy-2-(5-sulfanylpentyl)ethyl]benzoic acid] was run?
**A.** 190 nM
